Among the data in PubChem BioAssay AID328 (DTP/NCI, 2004) are T/C values, retold here.

The assay deals with BDF1 mice, P388 leukemia ip, median survival T/C. As to the kind of experiment: NCI In Vivo Anticancer Drug Screen. Data for tumor model P388 Leukemia (intraperitoneal) in B6D2F1 (BDF1) mice. Particulars: endpoint: median survival time, higher = longer survival. A digest of the protocol: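 Each value expresses how treatment altered survival: treated-mouse outcome over vehicle-mouse outcome, both groups bearing the transplanted tumour.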

The mark [1] stands for this setting: dose: 100.0 mg/kg/injection, schedule: Q01DX009 (ip), vehicle: saline with Tween-80.
Where [2] appears, read: dose: 200.0 mg/kg/injection, schedule: Q01DX009 (ip), vehicle: saline with Tween-80.
The mark [3] stands for this setting: dose: 400.0 mg/kg/injection, schedule: Q01DX009 (ip), vehicle: saline with Tween-80.
[4] abbreviates: dose: 50.0 mg/kg/injection, schedule: Q04DX003 (ip), vehicle: saline with Tween-80.
Setting [5] is: dose: 100.0 mg/kg/injection, schedule: Q04DX003 (ip), vehicle: saline with Tween-80.
Where [6] appears, read: dose: 200.0 mg/kg/injection, schedule: Q04DX003 (ip), vehicle: saline with Tween-80.
The mark [7] stands for this setting: dose: 25.0 mg/kg/injection, schedule: Q01DX009 (ip), vehicle: saline with Tween-80.
Where [8] appears, read: dose: 50.0 mg/kg/injection, schedule: Q01DX009 (ip), vehicle: saline with Tween-80.
Where [9] appears, read: dose: 25.0 mg/kg/injection, schedule: Q01DX009 (ip), vehicle: saline.
Setting [10] is: dose: 50.0 mg/kg/injection, schedule: Q01DX009 (ip), vehicle: saline.
[11] abbreviates: dose: 50.0 mg/kg/injection, schedule: Q04DX003 (ip), vehicle: saline.
[12] abbreviates: dose: 100.0 mg/kg/injection, schedule: Q04DX003 (ip), vehicle: saline.

Values joined by “and” are separate entries in the source; they are usually repeats but may differ in a detail not shown here. Identical values can stand only once. Toxic doses and inconclusive results are not listed.

Take `COc1ccccc1C1(O)c2ccccc2Sc2cccc(OC)c21` (stereo not drawn): the T/C by setting is: under setting [1], 104 % of control; under setting [2], 100 % of control; under setting [3], 95 % of control.
Consider `Cn1ccoc1=NC1CCCCC1`, for which the T/C reads like this: under setting [4], 100 % of control; under setting [5], 100 % of control; under setting [6], 109 % of control.
On to `CCCCCCCCCCCCCCCC(=O)OCC1OC(n2ccc(N)nc2=O)C(O)C1O` (stereo not drawn), for which the T/C runs as follows: (dose: 0.38 mg/kg/injection, schedule: Q04DX003 (ip), vehicle: saline with Tween-80) 111 % of control; (dose: 0.88 mg/kg/injection, schedule: Q04DX003 (ip), vehicle: saline with Tween-80) 109 % of control; (dose: 1.5 mg/kg/injection, schedule: Q04DX003 (ip), vehicle: saline with Tween-80) 152 % of control; (dose: 2.0 mg/kg/injection, schedule: Q04DX003 (ip), vehicle: saline with Tween-80) 154 % of control; (dose: 3.0 mg/kg/injection, schedule: Q04DX003 (ip), vehicle: saline with Tween-80) 181 % of control and 189 % of control; (dose: 3.13 mg/kg/injection, schedule: Q01DX009 (ip), vehicle: saline with Tween-80) 272 % of control and 215 % of control. In addition, the T/C runs as follows: (dose: 6.25 mg/kg/injection, schedule: Q01DX009 (ip), vehicle: saline with Tween-80) 250 % of control and 322 % of control; (dose: 7.5 mg/kg/injection, schedule: Q01DX009 (ip), vehicle: saline with Tween-80) 186 % of control; (dose: 12.5 mg/kg/injection, schedule: Q01DX009 (ip), vehicle: saline with Tween-80) 300 % of control and 333 % of control; (dose: 15.0 mg/kg/injection, schedule: Q01DX009 (ip), vehicle: saline with Tween-80) 190 % of control; (dose: 22.0 mg/kg/injection, schedule: Q01DX009 (ip), vehicle: saline with Tween-80) 272 % of control; under setting [7], 266 % of control and 300 % of control. For the same compound, the T/C runs as follows: (dose: 25.0 mg/kg/injection, schedule: Q04DX003 (ip), vehicle: saline with Tween-80) 109 % of control; (dose: 30.0 mg/kg/injection, schedule: Q01DX009 (ip), vehicle: saline with Tween-80) 104 % of control; (dose: 30.25 mg/kg/injection, schedule: Q01DX001 (ip), vehicle: Klucel (hydroxypropylcellulose) (HPC)) 214 % of control; (dose: 31.75 mg/kg/injection, schedule: Q04DX002 (ip), vehicle: Klucel (hydroxypropylcellulose) (HPC)) 265 % of control and 204 % of control; (dose: 40.0 mg/kg/injection, schedule: Q01DX001 (ip), vehicle: saline with Tween-80) 171 % of control; (dose: 44.0 mg/kg/injection, schedule: Q04DX003 (ip), vehicle: saline sonified) 275 % of control. Besides, the T/C reads like this: under setting [8], 90 % of control; under setting [4], 195 % of control; (dose: 60.0 mg/kg/injection, schedule: Q01DX001 (ip), vehicle: saline with Tween-80) 188 % of control; (dose: 62.5 mg/kg/injection, schedule: Q04DX002 (ip), vehicle: Klucel (hydroxypropylcellulose) (HPC)) 241 % of control and 265 % of control; (dose: 66.0 mg/kg/injection, schedule: Q04DX003 (ip), vehicle: saline sonified) 300 % of control; (dose: 90.0 mg/kg/injection, schedule: Q01DX001 (ip), vehicle: saline with Tween-80) 197 % of control. Also, the T/C (dose: 90.0 mg/kg/injection, schedule: Q04DX003 (ip), vehicle: saline with Tween-80) is 231 % of control (2×) and 217 % of control; the T/C (dose: 100.0 mg/kg/injection, schedule: Q01DX001 (ip), vehicle: saline) is 206 % of control; the T/C (dose: 100.0 mg/kg/injection, schedule: Q04DX003 (ip), vehicle: saline sonified) was 300 % of control; the T/C under setting [5] is 300 % of control and 168 % of control; the T/C (dose: 125.0 mg/kg/injection, schedule: Q01DX001 (ip), vehicle: saline with Tween-80) is 392 % of control; the T/C (dose: 125.0 mg/kg/injection, schedule: Q04DX002 (ip), vehicle: Klucel (hydroxypropylcellulose) (HPC)) is 265 % of control. Moreover, the T/C is, setting by setting: (dose: 150.0 mg/kg/injection, schedule: Q01DX001 (ip), vehicle: saline) 318 % of control; (dose: 150.0 mg/kg/injection, schedule: Q04DX003 (ip), vehicle: saline sonified) 120 % of control; (dose: 200.0 mg/kg/injection, schedule: Q01DX001 (ip), vehicle: saline with Tween-80) 239 % of control and 196 % of control and 214 % of control; under setting [6], 95 % of control and 120 % of control.
`COc1ccc(/C=C/c2ccc3ccccc3n2)c(OC)c1`: the T/C by setting is: under setting [5], 88 % of control; under setting [6], 100 % of control.
Turning to `O=C1c2ccccc2C(=O)N1CC[P+](c1ccc(Cl)cc1)(c1ccc(Cl)cc1)c1ccc(Cl)cc1`, the T/C reads like this: (dose: 0.78 mg/kg/injection, schedule: Q01DX009 (ip), vehicle: water) 103 % of control; (dose: 1.56 mg/kg/injection, schedule: Q01DX009 (ip), vehicle: water) 103 % of control; (dose: 3.13 mg/kg/injection, schedule: Q01DX009 (ip), vehicle: water) 103 % of control; (dose: 6.25 mg/kg/injection, schedule: Q01DX009 (ip), vehicle: water) 110 % of control; (dose: 12.5 mg/kg/injection, schedule: Q01DX009 (ip), vehicle: water) 103 % of control; (dose: 25.0 mg/kg/injection, schedule: Q01DX009 (ip), vehicle: water) 103 % of control.
Consider `Cc1n(CC(C)C)c2c([n+]1C)C(=O)c1ccccc1C2=O`, for which the T/C was 90 % of control (dose: 0.25 mg/kg/injection, schedule: Q01DX010 (ip), vehicle: saline); 90 % of control (dose: 0.5 mg/kg/injection, schedule: Q01DX010 (ip), vehicle: saline); 105 % of control (dose: 1.0 mg/kg/injection, schedule: Q01DX009 (ip), vehicle: saline); 90 % of control (dose: 1.0 mg/kg/injection, schedule: Q01DX010 (ip), vehicle: saline); 120 % of control (dose: 2.0 mg/kg/injection, schedule: Q01DX009 (ip), vehicle: saline); 120 % of control (dose: 2.0 mg/kg/injection, schedule: Q01DX010 (ip), vehicle: saline).
Consider `COc1cccc(CC(N)=O)c1OC`, for which the T/C under setting [9] was 99 % of control; the T/C under setting [10] was 99 % of control; the T/C under setting [11] was 109 % of control; the T/C (dose: 100.0 mg/kg/injection, schedule: Q01DX009 (ip), vehicle: saline) was 97 % of control; the T/C under setting [12] was 87 % of control and 99 % of control; the T/C (dose: 200.0 mg/kg/injection, schedule: Q01DX009 (ip), vehicle: saline) is 92 % of control. The T/C is 90 % of control and 94 % of control (dose: 200.0 mg/kg/injection, schedule: Q04DX003 (ip), vehicle: saline); 100 % of control (dose: 400.0 mg/kg/injection, schedule: Q04DX003 (ip), vehicle: saline).
In the case of `O=C(NC(=S)N1CCOCC1)c1ccccc1`, the T/C under setting [8] is 100 % of control, the T/C under setting [1] is 90 % of control, the T/C under setting [2] was 100 % of control and the T/C under setting [3] is 97 % of control.
Take `CN(C)c1nc(NC(=O)NC(=O)c2c(F)cccc2F)nc(N(C)C)n1`: under setting [7], the T/C is 88 % of control.
For the compound `ClC1OCCOC1Cl` (stereo not drawn), the T/C is, setting by setting: under setting [9], 96 % of control; under setting [10], 100 % of control; under setting [11], 105 % of control; under setting [12], 110 % of control.
Regarding `CCOC(=O)C(=O)Cc1sccc1[N+](=O)[O-]`, the T/C (dose: 100.0 mg/kg/injection, schedule: Q01DX009 (ip), vehicle: Klucel (hydroxypropylcellulose) (HPC)) is 105 % of control; the T/C (dose: 100.0 mg/kg/injection, schedule: Q04DX003 (ip), vehicle: Klucel (hydroxypropylcellulose) (HPC)) is 86 % of control; the T/C (dose: 200.0 mg/kg/injection, schedule: Q01DX009 (ip), vehicle: Klucel (hydroxypropylcellulose) (HPC)) was 100 % of control; the T/C (dose: 400.0 mg/kg/injection, schedule: Q01DX009 (ip), vehicle: Klucel (hydroxypropylcellulose) (HPC)) is 105 % of control; the T/C (dose: 400.0 mg/kg/injection, schedule: Q04DX003 (ip), vehicle: Klucel (hydroxypropylcellulose) (HPC)) is 91 % of control.
With `O=C(NC1=NN(c2ccccc2)C(=O)C1)c1ccccc1`, the T/C was 105 % of control (dose: 37.5 mg/kg/injection, schedule: Q01DX009 (ip), vehicle: saline with Tween-80) and 96 % of control (dose: 150.0 mg/kg/injection, schedule: Q01DX009 (ip), vehicle: saline with Tween-80).
